Assay results published in ChEMBL document CHEMBL4483862, “Open-source discovery of chemical leads for next-generation chemoprotective antimalarials” (2018).

Test system: Plasmodium berghei
Test: Luciferase/luciferin-expressing antifolate-resistant parasites were used to infect a culture of HepG2 cells that were pre-incubated with compounds. Infected hepatocytes emit light due to the luciferase reaction. Assay results are presented as the percent inhibition of light emission compared to control. […]
Type: functional
Conditions: sporozoite; for IC90: read-out: LUCIFERASE INFECTION ASSAY - IC90

Row | Structure (SMILES) | IC90 | further results
1 | CCCSC(=S)c1c(C)nn(-c2ccccc2)c1O | > 11.3 µM | IC50 (PBLUC_HILL_SLOPE 10.5, PBLUC_R_SQUARED 0.318, read-out: LUCIFERASE INFECTION ASSAY - IC50): 10.1 µM
2 | CN(C)CCn1c(=O)n(Cc2ccccc2)c(=O)c2c3c(sc21)CCCCC3 | > 8.3 µM | IC50 (PBLUC_HILL_SLOPE 10.5, PBLUC_R_SQUARED 0.0293, read-out: LUCIFERASE INFECTION ASSAY - IC50): 7.95 µM
3 | CCN1CCN(c2ccc(S(=O)(=O)N3CCOCC3)cc2NC(=O)/C=C/c2ccc([N+](=O)[O-])cc2)CC1 | > 10 µM | IC50 (PBLUC_HILL_SLOPE 11, PBLUC_R_SQUARED 0.478, read-out: LUCIFERASE INFECTION ASSAY - IC50): 8.35 µM
4 | CC(C)CC(N)c1csc(NC(=O)Nc2ccccc2-c2ccccc2)n1 (stereo not given) | 4.16 µM | IC50 (PBLUC_HILL_SLOPE 10.5, PBLUC_R_SQUARED 0.579, read-out: LUCIFERASE INFECTION ASSAY - IC50): 3.37 µM
5 | Cc1ccc(NC(=O)c2cc(-c3cc(Cl)ccc3C)[nH]n2)cc1NS(C)(=O)=O | 7.29 µM | IC50 (PBLUC_HILL_SLOPE 10.6, PBLUC_R_SQUARED 0.45, read-out: LUCIFERASE INFECTION ASSAY - IC50): 5.92 µM
6 | C/C(=N\Nc1cccc([N+](=O)[O-])c1)c1cc2ccccc2o1 | 4.09 µM | IC50 (PBLUC_HILL_SLOPE 10.9, PBLUC_R_SQUARED 0.683, read-out: LUCIFERASE INFECTION ASSAY - IC50): 3.34 µM
7 | Cc1nc2ccccc2c(=O)n1/N=C/c1cn(-c2ccccc2)nc1-c1cccs1 | > 10 µM | IC50 (PBLUC_HILL_SLOPE 10.9, PBLUC_R_SQUARED 0.148, read-out: LUCIFERASE INFECTION ASSAY - IC50): 8.36 µM
8 | CCCc1cc(=O)n2nc(C)c(-c3ccc(Cl)cc3)c2[nH]1 | 4.98 µM | IC50 (PBLUC_HILL_SLOPE 10.5, PBLUC_R_SQUARED 0.468, read-out: LUCIFERASE INFECTION ASSAY - IC50): 4.03 µM
9 | c1csc(-c2cn3c(-c4ccsc4)cnc3cn2)c1 | > 11.6 µM | IC50 (PBLUC_HILL_SLOPE 10.9, PBLUC_R_SQUARED 0.0923, read-out: LUCIFERASE INFECTION ASSAY - IC50): > 11.6 µM
10 | COc1cccc(-c2cn3c(-c4ccccc4)cnc3cn2)c1F | 10.2 µM | IC50 (PBLUC_HILL_SLOPE 10.4, PBLUC_R_SQUARED 0.353, read-out: LUCIFERASE INFECTION ASSAY - IC50): 8.27 µM
11 | CNC(=O)c1ccc(CN(Cc2ccco2)C(=O)c2cc(-c3cccs3)nn2-c2ccccc2)cc1 | 4.68 µM | IC50 (PBLUC_HILL_SLOPE 10.4, PBLUC_R_SQUARED 0.208, read-out: LUCIFERASE INFECTION ASSAY - IC50): 3.79 µM
12 | CC(C)CC(NC(=O)c1ccc(C#N)cc1)c1ccccc1 (stereo not given) | 9.52 µM | IC50 (PBLUC_HILL_SLOPE 10.9, 7.64, PBLUC_R_SQUARED 0.439, 0.355, read-out: LUCIFERASE INFECTION ASSAY - IC50): 8.11 µM
13 | CC(C)(C)NC(=S)Nc1ccc(C(F)(F)F)cc1[N+](=O)[O-] | > 10.3 µM | IC50 (PBLUC_HILL_SLOPE 10.5, PBLUC_R_SQUARED 0.215, read-out: LUCIFERASE INFECTION ASSAY - IC50): 9.08 µM
14 | CN(CC(=O)Nc1ccc(Oc2ccccc2)cc1)c1c(N)n(Cc2ccccc2)c(=O)[nH]c1=O | > 10 µM | IC50 (PBLUC_HILL_SLOPE 10.4, PBLUC_R_SQUARED 0.215, read-out: LUCIFERASE INFECTION ASSAY - IC50): 9.74 µM
15 | CC(C)(C)OC(=O)N1CCc2nc(NC(=O)c3csc(-c4ccco4)n3)sc2C1 | > 10 µM | IC50 (PBLUC_HILL_SLOPE 10.5, PBLUC_R_SQUARED 0.574, read-out: LUCIFERASE INFECTION ASSAY - IC50): 9.17 µM
16 | COc1ccc2[nH]c(C)c(-c3csc(NC(=O)c4ccccn4)n3)c2c1 | > 9.06 µM | IC50 (PBLUC_HILL_SLOPE 10.6, PBLUC_R_SQUARED 0.566, read-out: LUCIFERASE INFECTION ASSAY - IC50): 7.84 µM
17 | COc1cccc(-c2cn3c(-c4ccc(C(=O)NC5CC5)cc4)cnc3cn2)c1F | 7.93 µM | IC50 (PBLUC_HILL_SLOPE 10.9, PBLUC_R_SQUARED 0.72, read-out: LUCIFERASE INFECTION ASSAY - IC50): 6.48 µM
18 | Cc1ccc(C(=O)/C=C/c2cn(C)c(=O)n(C)c2=O)c(C)c1 | > 10 µM | IC50 (PBLUC_HILL_SLOPE 10.4, PBLUC_R_SQUARED 0.461, read-out: LUCIFERASE INFECTION ASSAY - IC50): 8.74 µM
19 | COc1cc(OC)cc(-c2cn3c(-c4cccc(OC(F)(F)F)c4)cnc3cn2)c1 | > 7.94 µM | IC50 (PBLUC_HILL_SLOPE 10.9, PBLUC_R_SQUARED 0.156, read-out: LUCIFERASE INFECTION ASSAY - IC50): > 7.94 µM
20 | COC(=O)c1ccc2c(=O)nc(CN3CCc4sccc4C3C)[nH]c2c1 (stereo not given) | > 10 µM | IC50 (PBLUC_HILL_SLOPE 11, PBLUC_R_SQUARED 0.235, read-out: LUCIFERASE INFECTION ASSAY - IC50): > 10 µM

Row | Structure (SMILES) | IC90 | further results
21 | Cc1ccccc1-c1ccnc2c1c(=O)[nH]c(=O)n2Cc1ccccc1 | > 9.61 µM | IC50 (PBLUC_HILL_SLOPE 10.5, PBLUC_R_SQUARED 0.045, read-out: LUCIFERASE INFECTION ASSAY - IC50): > 9.61 µM
22 | Cc1ccc(SCc2cc(=O)n3nc(C)c(-c4ccccc4)c3[nH]2)cc1 | > 9.13 µM | IC50 (PBLUC_HILL_SLOPE 11, PBLUC_R_SQUARED 0.259, read-out: LUCIFERASE INFECTION ASSAY - IC50): 7.6 µM
23 | CCCOc1c(/C=C/C(=O)c2ccc(OCC#N)cc2)cccc1OCC | 9.68 µM | IC50 (PBLUC_HILL_SLOPE 10.6, PBLUC_R_SQUARED 0.425, read-out: LUCIFERASE INFECTION ASSAY - IC50): 7.88 µM
24 | Cc1cc(OCC(=O)NCCc2c(C)cc(C(C)(C)C)cc2C)no1 | 6.12 µM | IC50 (PBLUC_HILL_SLOPE 10.6, 8.08, PBLUC_R_SQUARED 0.262, 0.836, read-out: LUCIFERASE INFECTION ASSAY - IC50): 4.78 µM
25 | COc1ccc(OC)c(S(=O)(=O)N2[C@@H]3CC[C@@H](C3)[C@H]2c2nc3cccc(OCc4ccccc4)c3[nH]2)c1 | > 10 µM | IC50 (PBLUC_HILL_SLOPE 10.6, PBLUC_R_SQUARED 0.0638, read-out: LUCIFERASE INFECTION ASSAY - IC50): > 10 µM
26 | O=C(CNc1cccc(S(=O)(=O)N2CCCCC2)c1)NC(=O)NC1CCCCC1 | > 10 µM | IC50 (PBLUC_HILL_SLOPE 11, PBLUC_R_SQUARED 0.0354, read-out: LUCIFERASE INFECTION ASSAY - IC50): 9.65 µM
27 | O=C1/C(=C/Nc2cccc(O)c2)c2ccccc2C(=O)N1Cc1ccccc1 | 9.61 µM | IC50 (PBLUC_HILL_SLOPE 10.5, PBLUC_R_SQUARED 0.272, read-out: LUCIFERASE INFECTION ASSAY - IC50): 7.8 µM
28 | CCCn1c(-c2cccs2)nc2c(c(=O)c3ccccc3n2C)c1=O | 3.69 µM | IC50 (PBLUC_HILL_SLOPE 10.5, PBLUC_R_SQUARED 0.782, read-out: LUCIFERASE INFECTION ASSAY - IC50): 3 µM
29 | Cc1c(C)c(C)c(S(=O)(=O)Nc2ccc(Oc3ccc(Cl)cc3)cc2)c(C)c1C | > 7.68 µM | IC50 (PBLUC_HILL_SLOPE 11, PBLUC_R_SQUARED 0.0118, read-out: LUCIFERASE INFECTION ASSAY - IC50): > 7.68 µM
30 | CCOc1ccccc1/C=N/n1c(-c2ccc(CC)cc2)cs/c1=N\c1cccc(OC)c1 | 3.81 µM | IC50 (PBLUC_HILL_SLOPE 10.6, PBLUC_R_SQUARED 0.562, read-out: LUCIFERASE INFECTION ASSAY - IC50): 3.1 µM
31 | COc1ccc(NC(=O)c2cccc(S(=O)(=O)N(Cc3ccccc3)c3ccccc3Cl)c2)cn1 | > 10 µM | IC50 (PBLUC_HILL_SLOPE 11, PBLUC_R_SQUARED 0.0841, read-out: LUCIFERASE INFECTION ASSAY - IC50): 9.79 µM
32 | COC(=O)c1ccc(=O)n(CC(=O)Nc2ccc(C(C)(C)C)cc2)c1 | > 10 µM | IC50 (PBLUC_HILL_SLOPE 11, PBLUC_R_SQUARED 0.594, read-out: LUCIFERASE INFECTION ASSAY - IC50): 9.09 µM
33 | Cc1ccc(O)c(C(=O)c2cn/c(=N\c3ccccc3)n(-c3ccccc3)c2)c1 | 4.08 µM | IC50 (PBLUC_HILL_SLOPE 10.6, PBLUC_R_SQUARED 0.86, read-out: LUCIFERASE INFECTION ASSAY - IC50): 3.32 µM
34 | O=C(CSc1nnc(-c2ccccc2)[nH]1)N1c2ccccc2OCC1c1ccccc1 (stereo not given) | > 10 µM | IC50 (PBLUC_HILL_SLOPE 11.0, 1.31, PBLUC_R_SQUARED 0.138, 0.609, read-out: LUCIFERASE INFECTION ASSAY - IC50): 6.33 µM
35 | CCCCOc1ccc(Nc2nc(C(N)Cc3ccc(OC)cc3)cs2)nn1 (stereo not given) | 3.76 µM | IC50 (PBLUC_HILL_SLOPE 10.9, PBLUC_R_SQUARED 0.27, read-out: LUCIFERASE INFECTION ASSAY - IC50): 3.08 µM
36 | Cc1cc(C)c(C)c(S(=O)(=O)N2CCN(S(=O)(=O)c3ccc(C(C)C)cc3)CC2)c1C | > 10 µM | IC50 (PBLUC_HILL_SLOPE 10.5, PBLUC_R_SQUARED 0.247, read-out: LUCIFERASE INFECTION ASSAY - IC50): 8.75 µM
37 | CNc1snc(C)c1C(=O)N(C)Cc1ccc(F)cc1F | 4.37 µM | IC50 (PBLUC_HILL_SLOPE 10.5, PBLUC_R_SQUARED 0.526, read-out: LUCIFERASE INFECTION ASSAY - IC50): 3.55 µM
38 | CCN(CC)c1ccc(NC(=O)c2[nH]nc3ccccc23)cc1S(=O)(=O)Nc1ccc(OC)cc1 | > 10 µM | IC50 (PBLUC_HILL_SLOPE 10.5, PBLUC_R_SQUARED 0.206, read-out: LUCIFERASE INFECTION ASSAY - IC50): 9.2 µM
39 | CNc1nnc(Sc2ncnc3ccsc23)s1 | 9.41 µM | IC50 (PBLUC_HILL_SLOPE 11, PBLUC_R_SQUARED 0.35, read-out: LUCIFERASE INFECTION ASSAY - IC50): 7.71 µM
40 | Cc1nc(-c2ccccn2)nc(NCc2ccccc2)c1Cl | 9.83 µM | IC50 (PBLUC_HILL_SLOPE 11, PBLUC_R_SQUARED 0.469, read-out: LUCIFERASE INFECTION ASSAY - IC50): 8.06 µM
